{"source": "patent US20190111137A1", "about": "“METHODS FOR ANTAGONISTS OF A NON-SELECTIVE CATION CHANNEL IN NEURAL CELLS” (University of Maryland, Baltimore, priority 2007, published 2019)", "key": {"NCCa-ATP channel [1]": {"biological_target": "T1, NCCa-ATP channel (Rattus norvegicus, UniProt Q09429+Q9ESQ5)", "T1 construct": "endogenous in cells; host or cells: freshly isolated native reactive astrocytes from the hypoxic gliotic capsule", "T1 sequence (Q09429 whole entry)": "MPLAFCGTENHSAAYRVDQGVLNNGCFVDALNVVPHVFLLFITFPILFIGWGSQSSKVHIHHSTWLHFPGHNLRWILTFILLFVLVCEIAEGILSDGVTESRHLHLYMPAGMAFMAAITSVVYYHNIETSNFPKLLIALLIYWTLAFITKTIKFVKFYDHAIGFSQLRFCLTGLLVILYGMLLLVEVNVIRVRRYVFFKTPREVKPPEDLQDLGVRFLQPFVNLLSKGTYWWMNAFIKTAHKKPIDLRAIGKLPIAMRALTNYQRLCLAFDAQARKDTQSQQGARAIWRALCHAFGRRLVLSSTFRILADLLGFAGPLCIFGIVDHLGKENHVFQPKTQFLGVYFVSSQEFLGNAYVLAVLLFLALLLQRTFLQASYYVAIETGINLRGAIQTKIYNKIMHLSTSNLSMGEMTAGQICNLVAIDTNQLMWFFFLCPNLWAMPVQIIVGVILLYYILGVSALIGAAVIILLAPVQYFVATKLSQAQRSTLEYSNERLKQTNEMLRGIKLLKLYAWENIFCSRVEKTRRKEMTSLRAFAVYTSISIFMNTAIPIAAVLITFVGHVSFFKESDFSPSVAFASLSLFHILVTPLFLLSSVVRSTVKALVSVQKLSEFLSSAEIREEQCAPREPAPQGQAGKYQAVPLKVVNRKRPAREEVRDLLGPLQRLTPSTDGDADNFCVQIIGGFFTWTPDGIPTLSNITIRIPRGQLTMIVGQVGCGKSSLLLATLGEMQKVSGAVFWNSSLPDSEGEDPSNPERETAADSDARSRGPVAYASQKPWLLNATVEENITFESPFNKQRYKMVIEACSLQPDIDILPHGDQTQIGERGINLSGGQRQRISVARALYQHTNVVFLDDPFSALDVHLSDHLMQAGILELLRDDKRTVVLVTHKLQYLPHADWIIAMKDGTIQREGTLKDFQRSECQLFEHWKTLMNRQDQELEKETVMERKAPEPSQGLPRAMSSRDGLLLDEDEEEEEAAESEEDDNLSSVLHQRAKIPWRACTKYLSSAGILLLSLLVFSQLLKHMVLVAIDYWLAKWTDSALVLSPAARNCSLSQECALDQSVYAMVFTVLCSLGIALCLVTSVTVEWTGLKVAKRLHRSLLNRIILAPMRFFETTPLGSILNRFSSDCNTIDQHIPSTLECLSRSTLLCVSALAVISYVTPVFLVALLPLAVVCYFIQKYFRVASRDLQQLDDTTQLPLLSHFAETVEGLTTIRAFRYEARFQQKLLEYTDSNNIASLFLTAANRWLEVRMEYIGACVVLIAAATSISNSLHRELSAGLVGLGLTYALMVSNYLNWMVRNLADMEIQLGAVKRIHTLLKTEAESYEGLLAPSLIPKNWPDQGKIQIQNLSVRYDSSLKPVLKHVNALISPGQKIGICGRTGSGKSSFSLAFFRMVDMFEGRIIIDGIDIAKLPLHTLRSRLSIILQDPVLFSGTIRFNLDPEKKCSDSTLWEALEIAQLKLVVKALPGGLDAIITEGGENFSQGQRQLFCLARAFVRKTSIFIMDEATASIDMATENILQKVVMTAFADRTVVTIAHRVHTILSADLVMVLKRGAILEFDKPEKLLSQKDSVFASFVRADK", "T1 sequence (Q9ESQ5 whole entry)": "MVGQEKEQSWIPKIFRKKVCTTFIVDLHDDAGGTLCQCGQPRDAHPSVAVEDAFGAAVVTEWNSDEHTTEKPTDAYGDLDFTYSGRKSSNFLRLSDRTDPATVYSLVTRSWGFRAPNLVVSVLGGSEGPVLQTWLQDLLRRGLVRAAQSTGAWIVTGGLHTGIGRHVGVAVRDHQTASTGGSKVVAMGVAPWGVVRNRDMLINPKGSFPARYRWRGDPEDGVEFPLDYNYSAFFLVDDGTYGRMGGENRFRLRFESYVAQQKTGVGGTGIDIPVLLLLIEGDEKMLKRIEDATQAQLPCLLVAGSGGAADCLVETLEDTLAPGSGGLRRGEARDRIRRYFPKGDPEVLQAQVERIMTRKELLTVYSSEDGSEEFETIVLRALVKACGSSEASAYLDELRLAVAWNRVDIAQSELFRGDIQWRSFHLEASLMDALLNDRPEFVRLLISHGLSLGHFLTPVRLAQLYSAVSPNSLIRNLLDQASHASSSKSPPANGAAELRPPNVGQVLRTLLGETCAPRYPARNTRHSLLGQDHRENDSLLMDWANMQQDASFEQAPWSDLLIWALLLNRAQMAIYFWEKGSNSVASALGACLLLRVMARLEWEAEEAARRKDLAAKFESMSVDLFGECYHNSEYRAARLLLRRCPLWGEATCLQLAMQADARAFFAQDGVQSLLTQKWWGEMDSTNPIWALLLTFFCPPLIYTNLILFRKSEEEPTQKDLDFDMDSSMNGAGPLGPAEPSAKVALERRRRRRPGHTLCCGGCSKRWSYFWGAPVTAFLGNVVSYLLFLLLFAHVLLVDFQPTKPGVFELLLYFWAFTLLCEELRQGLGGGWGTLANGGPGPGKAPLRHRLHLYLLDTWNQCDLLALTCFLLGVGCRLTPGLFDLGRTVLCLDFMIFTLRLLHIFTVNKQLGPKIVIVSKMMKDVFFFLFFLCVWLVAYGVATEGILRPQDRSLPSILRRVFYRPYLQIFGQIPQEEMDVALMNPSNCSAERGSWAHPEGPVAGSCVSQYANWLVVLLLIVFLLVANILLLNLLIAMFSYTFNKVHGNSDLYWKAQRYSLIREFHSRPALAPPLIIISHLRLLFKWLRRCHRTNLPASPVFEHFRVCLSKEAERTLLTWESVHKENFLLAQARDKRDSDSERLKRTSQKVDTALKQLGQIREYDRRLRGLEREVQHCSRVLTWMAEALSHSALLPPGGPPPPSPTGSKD", "settings": "cited from earlier work; for channel opening in the presence of ATP: K+ channel openers"}, "reactive astrocytes": {"system": "reactive astrocytes", "settings": "without ATP depletion; cited from earlier work"}, "NCCa-ATP channel [2]": {"system": "NCCa-ATP channel", "assay": "Patch clamp of bEnd.3 cells exposed to TNFα, ATP depleted with Na azide plus 2-DG", "type": "cell-based, murine", "description": "(§1) (iii) Pharmacological block of SUR1 and TRPM4/patch clamp.\n(§2) Patch clamp was performed using a nystatin-perforated patch technique to maintain the metabolic integrity of the cells.\n(§3) Single channel recordings were performed using inside-out patches, with Cs^+ as the only permeant cation.\n(§4) Apart from direct application of PIP2 (FIG. 24A), PIP2 levels can be augmented by inhibiting spontaneously active PLC.\n(§5) PATCH CLAMP. […] In general, recordings are carried out using a Cs^+ rich solution, to preclude recording activity from any K^+ channel including KATP channel."}, "[3]": {"system": "isolated retina of chick embryo", "settings": "cited from earlier work"}, "[4]": {"system": "rodent model of transient focal ischemia", "settings": "pre- or post-ischemic administration; cited from earlier work"}, "[5]": {"system": "permanent middle cerebral artery occlusion (MCAO) model", "settings": "cited from earlier work"}, "temporary MCAO model": {"system": "temporary MCAO model", "settings": "cited from earlier work"}, "[6]": {"system": "global cerebral ischemia in gerbils", "settings": "in vivo; cited from earlier work"}, "NCCa-ATP channel [7]": {"biological_target": "T1, NCCa-ATP channel", "assay": "Patch clamp of NCCa-ATP channel in freshly isolated native reactive astrocytes", "type": "cell-based", "settings": "for EC50: read-out: [ATP]1 EC50", "description": "as §5"}, "TRPM4 channel": {"system": "TRPM4 channel", "settings": "cited from earlier work"}, "NCCa-ATP channel [8]": {"biological_target": "T2, NCCa-ATP channel (Mus musculus, UniProt B2RUS7+Q7TN37)", "T2 construct": "exposure to TNFα causes expression of a new channel that is not present before exposure to TNFα; host or cells: bEnd.3 cells exposed to TNFα", "assay": "Patch clamp of bEnd.3 cells exposed to TNFα, ATP depleted with Na azide plus 2-DG", "type": "cell-based, murine", "settings": "TNFα-treated bEnd.3 cells; for block of single channel activity (inside-out patch): Cs+ as the only permeant cation", "description": "as §1, §2, §3, §4, §5"}, "[9]": {"system": "rat model of contusion SCI", "settings": "as reported (Simard et al., 2007); cited from earlier work"}, "[10]": {"system": "rat model of contusion SCI", "assay": "Rat model of unilateral cervical spinal cord injury (SCI)", "type": "in vivo", "settings": "for neurobehavioral function (inclined plane, rearing) / progressive hemorrhagic necrosis / progressive hemorrhage: post-SCI"}, "TRPM2": {"biological_target": "T3, TRPM2 (Homo sapiens, UniProt O94759)", "T3 construct": "host or cells: Chinese hamster ovary cells", "T3 sequence (O94759 whole entry)": "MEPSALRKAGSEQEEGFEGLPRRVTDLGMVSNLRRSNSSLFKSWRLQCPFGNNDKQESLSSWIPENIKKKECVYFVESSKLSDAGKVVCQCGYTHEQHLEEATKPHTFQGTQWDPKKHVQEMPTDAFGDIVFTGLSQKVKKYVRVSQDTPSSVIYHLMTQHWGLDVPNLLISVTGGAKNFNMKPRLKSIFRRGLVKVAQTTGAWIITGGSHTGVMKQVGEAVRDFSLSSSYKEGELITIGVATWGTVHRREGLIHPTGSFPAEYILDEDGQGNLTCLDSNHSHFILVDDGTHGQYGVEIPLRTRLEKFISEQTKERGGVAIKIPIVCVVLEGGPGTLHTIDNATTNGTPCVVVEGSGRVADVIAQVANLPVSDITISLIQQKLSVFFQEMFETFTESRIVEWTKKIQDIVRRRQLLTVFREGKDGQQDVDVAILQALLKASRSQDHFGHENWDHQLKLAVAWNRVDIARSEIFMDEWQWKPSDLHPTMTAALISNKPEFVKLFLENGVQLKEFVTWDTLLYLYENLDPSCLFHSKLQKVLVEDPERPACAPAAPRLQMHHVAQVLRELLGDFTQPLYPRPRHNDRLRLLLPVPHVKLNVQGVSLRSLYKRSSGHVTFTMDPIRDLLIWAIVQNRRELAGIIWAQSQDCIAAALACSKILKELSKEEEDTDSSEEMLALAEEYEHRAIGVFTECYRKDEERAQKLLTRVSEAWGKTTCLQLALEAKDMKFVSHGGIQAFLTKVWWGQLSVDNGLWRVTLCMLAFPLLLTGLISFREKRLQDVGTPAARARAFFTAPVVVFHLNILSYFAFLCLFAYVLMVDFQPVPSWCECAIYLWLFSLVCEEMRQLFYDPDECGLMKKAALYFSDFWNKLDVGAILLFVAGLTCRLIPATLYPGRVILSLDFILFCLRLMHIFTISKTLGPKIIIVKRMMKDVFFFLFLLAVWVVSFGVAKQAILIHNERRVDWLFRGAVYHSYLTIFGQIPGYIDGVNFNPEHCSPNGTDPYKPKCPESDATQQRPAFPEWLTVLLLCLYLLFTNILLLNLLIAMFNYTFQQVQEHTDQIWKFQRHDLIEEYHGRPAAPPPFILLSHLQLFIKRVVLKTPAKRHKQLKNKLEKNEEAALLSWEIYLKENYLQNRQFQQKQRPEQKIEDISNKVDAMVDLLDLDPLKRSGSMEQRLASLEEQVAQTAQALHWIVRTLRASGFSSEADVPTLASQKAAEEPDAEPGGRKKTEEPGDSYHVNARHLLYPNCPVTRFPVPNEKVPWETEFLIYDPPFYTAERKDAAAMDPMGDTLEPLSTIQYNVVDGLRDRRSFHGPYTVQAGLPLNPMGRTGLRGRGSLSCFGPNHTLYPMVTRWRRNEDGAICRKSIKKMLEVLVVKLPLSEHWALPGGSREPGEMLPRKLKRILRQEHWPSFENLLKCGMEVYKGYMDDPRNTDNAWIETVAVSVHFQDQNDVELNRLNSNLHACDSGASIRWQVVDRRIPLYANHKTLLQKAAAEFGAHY", "settings": "activated by extracellular H2O2; cited from earlier work"}, "[11]": {"settings": "after 6 h of vascular occlusion"}, "[12]": {"settings": "Membrane Preparation derived from freshly isolated native reactive astrocytes"}}, "note": "“Also recorded” adds a separate entry of the source. Where two headings read alike, the source gives them in different places."}
{"compound": "CC1=NS(=O)(=O)c2cc(Cl)ccc2N1", "note": "[diazoxide]", "values": [{"measurement": "channel opening in the presence of ATP", "setting": "NCCa-ATP channel [1]", "result": "increased"}, {"measurement": "bleb formation", "setting": "reactive astrocytes", "result": "reproduced"}]}
{"compound": "COc1ccc2c(c1)CC[C@@H]1[C@@H]2CC[C@]2(C)[C@@H](NCCCCCCN3C(=O)C=CC3=O)CC[C@@H]12", "note": "[U73122]", "values": [{"measurement": "channel activation by inhibiting phospholipase C (whole cell)", "setting": "NCCa-ATP channel [2]; TNFα-stimulated bEnd.3 cells", "result": "activated an ohmic current; also recorded: channel activation"}, {"measurement": "channel activation by inhibiting phospholipase C (whole cell)", "setting": "NCCa-ATP channel [2]; control bEnd.3 cells", "result": "without effect"}]}
{"compound": "Cc1cccc(Nc2ccccc2C(=O)O)c1C", "note": "[mefenamic acid]", "values": [{"measurement": "protection of the retina against ischemic or excitotoxic insult", "setting": "[3]", "result": "protected"}, {"measurement": "neuroprotection (necrosis in cortex and subcortical structures)", "setting": "[4]", "result": "no neuroprotection"}]}
{"compound": "CCCCNC(=O)NS(=O)(=O)c1ccc(C)cc1", "note": "[tolbutamide]", "values": [{"measurement": "EC50", "setting": "NCCa-ATP channel [1]; pH 7.4, read-out: block of NCCa-ATP channel opening (EC50)", "result": 16100, "unit": "nM"}]}
{"compound": "COc1cc2c(cc1OC)C(C(C(=O)N(CCc1ccc(OC)c(OC)c1OC)CCc1ccc(OC)c(OC)c1OC)c1ccccc1)=NCC2", "note": "(racemic) [pinokalant, (R,S)-(3,4-dihydro-6,7-dimethoxy-isoquinoline-1-yl)-2-phenyl-N,N-di[2-(2,3,4-trimethoxyphenyl)ethyl]-acetamide]", "values": [{"measurement": "blood flow", "setting": "[5]; [11]", "result": "significantly higher"}, {"measurement": "volume of ATP-depleted and morphologically injured tissue (infarct core), smaller", "setting": "[5]; [11]", "result": "60-70%"}, {"measurement": "decrease of ADC lesion volume", "setting": "[5]; during the initial 6 h of vascular occlusion", "result": "approximately 20%"}, {"measurement": "size of ischemic penumbra", "setting": "[5]; volume of severely acidic tissue", "result": "does not reduce"}, {"measurement": "DWI-derived infarct volume", "setting": "temporary MCAO model; 4 h after MCAO", "result": "significantly smaller"}, {"measurement": "neurological scores", "setting": "temporary MCAO model; 24 h", "result": "significantly better"}, {"measurement": "TTC-derived infarct volume", "setting": "temporary MCAO model; postmortem", "result": "significantly attenuated"}, {"measurement": "size of the ischemic core", "setting": "temporary MCAO model; rat, in vivo", "result": "significantly smaller"}]}
{"compound": "Oc1cc2c(cc1O)CN(C(=S)NCCc1ccc(Cl)cc1)CCC2", "note": "[capsazepine]", "values": [{"measurement": "effect on rimonabant-induced and capsaicin-induced neuroprotective effects", "setting": "[6]", "result": "reversed"}]}
{"compound": "CC1(C)Oc2ccc(C#N)cc2C(N2CCCC2=O)C1O", "note": "(stereo not shown) [cromakalin]", "values": [{"measurement": "channel opening in the presence of ATP", "setting": "NCCa-ATP channel [1]", "result": "not"}]}
{"compound": "Nc1ncnc2c1ncn2[C@@H]1O[C@H](COP(=O)(O)O)[C@@H](O)[C@H]1O", "note": "[AMP]", "values": [{"measurement": "ADP AMP channel effect", "setting": "NCCa-ATP channel [7]; [12]", "result": "No channel"}, {"measurement": "ADP AMP channel effect", "setting": "NCCa-ATP channel [7]; Reactive Astrocytes", "result": "No channel"}, {"measurement": "ADP, AMP block", "setting": "NCCa-ATP channel [1]; SUR1-regulated NCCa-ATP", "result": "no"}, {"measurement": "effect of ADP or AMP on channel opening", "setting": "NCCa-ATP channel [1]", "result": "unaffected"}, {"measurement": "ADP, AMP block", "setting": "TRPM4 channel", "result": "yes"}]}
{"compound": "Nc1ncnc2c1ncn2[C@@H]1O[C@H](COP(=O)(O)OP(=O)(O)OP(=O)(O)O)[C@@H](O)[C@H]1O", "note": "[ATP]", "values": [{"measurement": "EC50", "setting": "NCCa-ATP channel [7]; [12]", "result": 790, "unit": "nM"}, {"measurement": "EC50", "setting": "NCCa-ATP channel [7]; Reactive Astrocytes", "result": 790, "unit": "nM"}, {"measurement": "block of single channel activity (inside-out patch)", "setting": "NCCa-ATP channel [8]", "result": "reversibly blocked"}, {"measurement": "EC50", "setting": "NCCa-ATP channel [1]; SUR1-regulated NCCa-ATP, read-out: ATP block (EC50)", "result": 800, "unit": "nM"}, {"measurement": "EC50", "setting": "NCCa-ATP channel [1]; read-out: Channel opening blocked by ATP (EC50)", "result": 790, "unit": "nM"}, {"measurement": "EC50", "setting": "TRPM4 channel; read-out: ATP block (EC50)", "result": "130 to 1700", "unit": "nM"}]}
{"compound": "PIP2", "values": [{"measurement": "PIP2 activation", "setting": "NCCa-ATP channel [7]; SUR1-regulated NCCa-ATP, unpublished observations", "result": "yes*"}, {"measurement": "channel activity after addition of PIP2", "setting": "NCCa-ATP channel [7]; inside-out patch, high concentration of ATP (10 mM) on the cytoplasmic side", "result": "robust channel activation; also recorded: release of inhibition"}, {"measurement": "PIP2 activation", "setting": "TRPM4 channel", "result": "yes"}]}
{"compound": "Cc1ccc(Cl)c(Nc2ccccc2C(=O)O)c1Cl", "note": "[meclofenamic acid]", "values": [{"measurement": "protection of the retina against ischemic or excitotoxic insult", "setting": "[3]", "result": "protected"}]}
{"compound": "CC(N/C(=N\\C#N)Nc1ccncc1)C(C)(C)C", "note": "(stereo not shown) [pinacidil]", "values": [{"measurement": "channel opening in the presence of ATP", "setting": "NCCa-ATP channel [1]", "result": "not"}]}
{"compound": "CCOc1cc(CC(=O)N[C@@H](CC(C)C)c2ccccc2N2CCCCC2)ccc1C(=O)O", "note": "[repaglinide]", "values": [{"measurement": "neurological function", "setting": "[9]", "result": "improves neurological function"}, {"measurement": "progressive hemorrhagic necrosis", "setting": "[9]", "result": "reduces progressive hemorrhagic necrosis"}]}
{"compound": "COc1cc(CNC(=O)CCCC/C=C/C(C)C)ccc1O", "note": "[capsaicin]", "values": [{"measurement": "electroencephalographic changes, hyperlocomotion and memory impairment induced by global ischemia", "setting": "[6]", "result": "antagonize"}, {"measurement": "survival of pyramidal cells in the CA1 subfield of the hippocampus", "setting": "[6]", "result": "progressive survival"}]}
{"compound": "O=C(O)c1ccccc1Nc1cccc(C(F)(F)F)c1", "note": "[flufenamic acid]", "values": [{"measurement": "block of current activated by ATP depletion (whole cell)", "setting": "NCCa-ATP channel [8]", "result": "blocked; also recorded: also blocks this current"}, {"measurement": "block of current activated by ATP depletion (whole cell)", "setting": "NCCa-ATP channel [8]; 100 μM flufenamic acid", "result": "blocked"}, {"measurement": "block of single channel activity (inside-out patch)", "setting": "NCCa-ATP channel [8]", "result": "blocked"}, {"measurement": "block of current activated by ATP depletion (whole cell)", "setting": "NCCa-ATP channel [8]; listed as FFA", "result": "blocked"}, {"measurement": "amount of blood in cord homogenates", "setting": "[10]; 24-hr post-SCI, post-treatment", "result": "significant decrease in blood"}, {"measurement": "hemorrhage in cords (surface and sections)", "setting": "[10]; 24 h post-SCI", "result": "less hemorrhage"}, {"measurement": "neurobehavioral function (inclined plane, rearing)", "setting": "[10]", "result": "improves neurological function; also recorded: improved"}, {"measurement": "progressive hemorrhagic necrosis / progressive hemorrhage", "setting": "[10]", "result": "reduces progressive hemorrhagic necrosis; also recorded: blocked"}, {"measurement": "neurobehavioral function (inclined plane, rearing)", "setting": "[10]; listed as FFA", "result": "improve neurobehavioral function; also recorded: significantly better performance than controls"}, {"measurement": "progressive hemorrhagic necrosis / progressive hemorrhage", "setting": "[10]; listed as FFA", "result": "prevented"}, {"measurement": "capillary integrity (vimentin immunolabeling)", "setting": "[10]; region of injury post-SCI, listed as FFA", "result": "elongated capillaries; also recorded: elongated and more intact"}, {"measurement": "inhibition of TRPM2", "setting": "TRPM2", "result": "inhibits"}, {"measurement": "protection of the retina against ischemic or excitotoxic insult", "setting": "[3]", "result": "protected"}]}
{"compound": "Nc1ncnc2c1ncn2[C@@H]1O[C@H](COP(=O)(O)OP(=O)(O)O)[C@@H](O)[C@H]1O", "note": "[ADP]", "values": [{"measurement": "ADP AMP channel effect", "setting": "NCCa-ATP channel [7]; [12]", "result": "No channel"}, {"measurement": "ADP AMP channel effect", "setting": "NCCa-ATP channel [7]; Reactive Astrocytes", "result": "No channel"}, {"measurement": "ADP, AMP block", "setting": "NCCa-ATP channel [1]; SUR1-regulated NCCa-ATP", "result": "no"}, {"measurement": "effect of ADP or AMP on channel opening", "setting": "NCCa-ATP channel [1]", "result": "unaffected"}, {"measurement": "ADP, AMP block", "setting": "TRPM4 channel", "result": "yes"}]}
{"compound": "[Ca+2]", "note": "[Ca^2+]", "values": [{"measurement": "Activation [Ca^2+]", "setting": "NCCa-ATP channel [7]; [12]", "result": "<1.0", "unit": "µM"}, {"measurement": "Activation [Ca^2+]", "setting": "NCCa-ATP channel [7]; Reactive Astrocytes", "result": "<1.0", "unit": "µM"}, {"measurement": "EC50", "setting": "NCCa-ATP channel [1]; SUR1-regulated NCCa-ATP, read-out: Ca^2+ activation (EC50)", "result": "120 to 1500", "unit": "nM"}, {"measurement": "EC50", "setting": "TRPM4 channel; read-out: Ca^2+ activation (EC50)", "result": 1300, "unit": "nM"}]}
{"compound": "S=C(S)N1CCCC1", "note": "[PDTC, pyrrolidine dithiocarbamate]", "values": [{"measurement": "TRPM4 expression in cord (immunolabeling)", "setting": "[10]; 24 h post-SCI", "result": "significantly decreased; also recorded: reduces TRPM4 expression"}, {"measurement": "neurobehavioral function (inclined plane, rearing)", "setting": "[10]", "result": "improved functional outcome"}]}
